{
  "source": "patent US20070010538A1",
  "about": "“Inhibition of pathogenic processes related to tissue trauma” (priority 1998, published 2007)",
  "key": {"[1]": {"test_system": "collagen type I gene expression", "assay": "Northern blot for collagen type I gene expression in human skin fibroblasts", "type": "cell-based", "settings": "primary culture", "experimental": "(§1) Next, human skin fibroblasts were taken from a subject and were maintained in primary culture. Control cells were treated with vehicle while Halofuginone-treated cells were treated with Halofuginone as previously described. The cells were then harvested and subjected to RNA extraction and Northern blot analysis for collagen type I gene expression and for cKrox gene expression."}, "[2]": {"test_system": "Ang II-induced cardiac fibrosis", "assay": "Ang II-induced cardiac fibrosis in rats: histology and collagen volume quantitation (Sirius red)", "type": "in vivo, rat", "experimental": "The experimental method was as follows. Male Sprague-Dawley rats were divided into four groups. Two groups were chronically infused with Ang II at the rate of 0.150 ng/min by implanted mini-pump. This dosage regimen will induce severe cardiac fibrosis. The other two groups of rats, control rats, were injected with saline. One group of Ang II-treated rats and one control group were daily injected intraperitoneally with 16 micrograms of Halofuginone. At the end of the experimental period, the rats were sacrificed and the heart was removed and weighed. Heart samples were taken for histological examination. Briefly, the tissue samples were collected into phosphate-buffered saline (PBS) and fixed overnight in 4% paraformaldehyde in PBS at 4° C. Serial 5 μm sections were prepared after the samples had been dehydrated in graded ethanol solutions, cleared in chloroform and embedded in Paraplast. Differential staining of collagenous and non-collagenous proteins was performed with 0.1% Sirius red and 0.1% fast green as a counter-stain in picric acid. This procedure stains collagen red [Gascon-Barre, M., et al., J. Histochem. Cytochem., 37:377-381, 1989]. […] Indeed, the ventricular collagen volume fraction (CVF) was increased by threefold (p<0.05) in rats treated with Ang II, compared to rats treated with either Halofuginone alone or Halofuginone plus Ang II. In addition, the ventricular CVF for control rats was identical to that for rats treated with Halofuginone alone."}, "[3]": {"test_system": "NF-κB transcription", "assay": "NF-κB transcription assay (MDS Panlabs)", "type": "cell-based", "experimental": "(§2) The ability of Halofuginone to inhibit various biochemical processes according to a set of assays for determining the percent inhibition of specific binding or activity of particular cellular proteins is described in greater detail in Table 1 below. The assays were performed by MDS Panlabs Inc. (Bothell, […]., USA). These assays included: the inhibition of release of the cytokines IL-1β and TNF-α; and the inhibition of the transcription of NF-κB."}, "[4]": {"test_system": "collagen α1(I) gene", "assay": "Ang II rat model: in situ hybridization of heart tissue with rat collagen α1(I) probe", "type": "in vivo", "settings": "rats given both Halofuginone and Ang II vs Ang II alone", "experimental": "(§3) The experimental method was as follows. Male Sprague-Dawley rats were divided into four groups. Two groups were chronically infused with Ang II at the rate of 0.150 ng/min by implanted mini-pump. This dosage regimen will induce severe cardiac fibrosis. The other two groups of rats, control rats, were injected with saline. One group of Ang II-treated rats and one control group were daily injected intraperitoneally with 16 micrograms of Halofuginone. At the end of the experimental period, the rats were sacrificed and the heart was removed and weighed. Heart samples were then hybridized with a probe for rat collagen α1(I) expression, or with a probe for TGF β1 expression. For hybridization with one of the genetic probes, the sections were deparafinized in xylene, rehydrated through a graded series of ethanol solutions, rinsed in distilled water for 5 minutes and then incubated in 2×SSC at 70° C. for 30 minutes. The sections were then rinsed in distilled water and treated with pronase, 0.125 mg/ml in 50 mM Tris-HCl, 5 mM EDTA, pH 7.5, for 10 minutes. After digestion, the slides were rinsed with distilled water, post-fixed in 10% formalin in PBS and blocked in 0.2% glycine. After blocking, the slides were rinsed in distilled water, rapidly dehydrated through graded ethanol solutions and air-dried for several hours. […]"}, "[5]": {"test_system": "cytokine TNF-α release", "assay": "Cytokine TNF-α release assay (MDS Panlabs)", "type": "cell-based", "experimental": "as §2"}, "[6]": {"test_system": "β3 integrin chain", "assay": "RT-PCR for β3 integrin chain in MDA 435 breast carcinoma cells", "type": "cell-based, human", "settings": "MDA 435 cells, 24 h, 200 ng/ml", "experimental": "(§4) Therefore, the effect of Halofuginone was investigated on the expression of αv, β3 and β5 integrin subunits in the highly aggressive MDA 435 human breast carcinoma cell line. Cells were cultured in the absence (FIG. 4, lanes A & B) or presence of increasing concentrations (10-400 ng/ml) of Halofuginone for 24 h (lane C: 400 ng/ml), 48 h (lanes D-G: 10, 50, 200, and 400 ng/ml, respectively) or 72 h (FIG. 4, lane H: 400 ng/ml). Total RNA was extracted, subjected to 1.1% formaldehyde-agarose gel electrophoresis, transferred to a nylon membrane and hybridized with ^32P-labeled PCR probe corresponding to αv. […] This effect was […] at higher concentrations (200-400 ng/ml) of Halofuginone (FIG. 4, lanes F-H). Next, RT-PCR was used to analyze the effect of Halofuginone on expression of the β3 and β5 integrin chains by the MDA 435 breast carcinoma cells. […] In contrast, there was no effect on expression of the β5 mRNA. As the αvβ3 integrin complex plays an important role in tumor angiogenesis, the anti-angiogenic effect of Halofuginone may be mediated in part by its inhibition of the β3 gene expression."}, "[7]": {"test_system": "collagen type I gene expression", "assay": "Northern blot for collagen type I gene expression in myometrial and leiomyosarcoma cells", "type": "cell-based, human", "settings": "increasing concentrations, about 48 hours", "experimental": "Myometrial and leiomyosarcoma cells were taken from the same patient and were plated into 10 cm plates in DMEM supplemented with 10% FCS. When the cells reached 80% confluence, the medium was replaced by serum free DMEM plus 0.1% BSA for 48 hours, washed and exposed to increasing concentrations of Halofuginone in the same medium for about 48 hours at about 37° C. The cells were then harvested and subjected to RNA extraction and Northern blot analysis for collagen type I gene expression."}, "[8]": {"test_system": "collagen α1(I) mRNA", "assay": "Collagen α1(I) mRNA level in primary human fibroblasts", "type": "cell-based", "settings": "tested at the level of RNA", "experimental": "The same protocol was used as previously. Primary human fibroblasts were treated for 1 hr with 10^−8 M Halofuginone. […] Arrays include 265 genes known to be involved in various types of cell interactions."}, "[9]": {"test_system": "MMP2 (72 kDa type IV collagenase)", "assay": "Gelatin zymography of type IV collagenase activity in T50 bladder carcinoma cell cultures", "type": "cell-based", "experimental": "Sub-confluent cell cultures were incubated for 6-24 h in serum-free DMEM. The collagenolytic activity was determined on a gelatin impregnated (1 mg/ml. Difco, Detroit, Mich.) SDS-PAGE 8% gel. Briefly, culture media samples were separated on the substrate impregnated gels under non reducing conditions, followed by 30 min incubation in 2.5% Triton X-100 (BDH, England). The gels were then incubated for 16 h at 37° C. in 50 mM Tris, 0.2 M NaCl, 5 mM CaCl2, 0.02% Brij 35 (weight/volume) at pH 7.5. At the end of incubation period, the gels were stained with 0.5% Coomassie G250 (Bio-Rad Richmond Calif.) in methanol/acetic acid/H2O (30:10:60). The intensity of the various bands was determined on a computerized densitometer (Molecular Dynamics type 300A)."}, "[10]": {"test_system": "β5 integrin chain", "assay": "RT-PCR for β5 integrin chain in MDA 435 breast carcinoma cells", "type": "cell-based, human", "settings": "MDA 435 cells, 24 h, 10-400 ng/ml", "experimental": "as §4"}, "[11]": {"test_system": "αv integrin subunit", "assay": "Northern blot for integrin αv mRNA in MDA 435 breast carcinoma cells", "type": "cell-based, human", "settings": "MDA 435 cells", "experimental": "as §4"}, "[12]": {"test_system": "TGF β", "assay": "Ang II rat model: in situ hybridization of heart tissue with TGF-β1 probe", "type": "in vivo", "settings": "rats given Ang II plus Halofuginone vs Ang II", "experimental": "as §3"}, "[13]": {"test_system": "cell invasion through matrigel ECM", "assay": "Boyden chamber invasion assay", "type": "cell-based", "settings": "data not shown", "from_the_text": "Such inhibition supports the inclusion of type IV collagenase inhibition as part of the extracellular matrix economy mechanism, in which Halofuginone inhibits undesirable pathological processes such as tumor growth, progression and metastasis, as described previously."}, "[14]": {"test_system": "cKrox gene expression", "assay": "Northern blot for cKrox gene expression in human skin fibroblasts", "type": "cell-based", "settings": "primary culture", "experimental": "as §1"}, "[15]": {"test_system": "cytokine IL-1β release", "assay": "Cytokine IL-1β release assay (MDS Panlabs)", "type": "cell-based", "experimental": "as §2"}, "[16]": {"test_system": "H19 gene", "assay": "Northern blot for H19 gene expression in bladder carcinoma cell lines", "type": "cell-based, human", "settings": "130 ng/ml", "experimental": "RT112 and 5376 human bladder carcinoma cell lines were cultured in the absence and presence of Halofuginone (130 ng/ml, added 24 h or 72 h after seeding), and the expression of the H19 gene was evaluated by Northern blot analysis ([…]. et al., Arterioscler. Thromb. Vasc. Biol., Vol. 17, p. 194-202, 1997). […] Such inhibition also supports the inclusion of the inhibition of H19 gene expression as part of the extracellular matrix economy mechanism, as described previously."}},
  "note": "pIC50: −log10 of the molar value.",
  "data": [
    {"smiles": "O=C(CC1NCCC[C@H]1O)Cn1cnc2cc(Br)c(Cl)cc2c1=O", "note": "(stereo partly drawn) [Halofuginone]", "values": [
      {"measurement": "collagen type I gene expression", "setting": "[1]", "result": "inhibiting collagen type I gene expression"},
      {"measurement": "Ang II-induced morphological changes in rat heart (histology)", "setting": "[2]; Ang II-infused rats, 16 micrograms daily intraperitoneally", "result": "substantially inhibited"},
      {"measurement": "ventricular CVF", "setting": "[2]; Halofuginone alone, without Ang II, two week period", "result": "did not alter"},
      {"measurement": "ventricular collagen volume (CVF)", "setting": "[2]; rats given both Ang II and Halofuginone vs Ang II alone, 16 micrograms daily i.p.", "result": "markedly reduced"},
      {"measurement": "pIC50", "setting": "[3]", "result": 7.60},
      {"measurement": "expression of collagen α1(I) gene in rat heart", "setting": "[4]", "result": "marked reduction"},
      {"measurement": "pIC50", "setting": "[5]", "result": 8.17},
      {"measurement": "β3 mRNA expression", "setting": "[6]", "result": "almost complete inhibition"},
      {"measurement": "collagen type I gene expression (products at 5.4 and 4.8 kb)", "setting": "[7]", "result": "inhibited collagen type I gene expression"},
      {"measurement": "collagen α1(I) mRNA", "setting": "[8]", "result": "reduced"},
      {"measurement": "inhibition of the activity of MMP2 (72 kDa type IV collagenase)", "setting": "[9]; 25 ng/ml", "result": "profound inhibition"},
      {"measurement": "inhibition of the activity of MMP2 (72 kDa type IV collagenase)", "setting": "[9]; 100 ng/ml", "result": "almost complete inhibition"},
      {"measurement": "β5 mRNA expression", "setting": "[10]", "result": "no effect"},
      {"measurement": "αv mRNA expression (up regulation effect)", "setting": "[11]; 200-400 ng/ml", "result": "minimal"},
      {"measurement": "αv mRNA expression", "setting": "[11]; 48 h, 10 and 50 ng/ml", "result": "up regulation"},
      {"measurement": "Ang II-induced increase in expression of mRNA for TGF β in rat heart", "setting": "[12]", "result": "not affected"},
      {"measurement": "cell invasion through matrigel ECM", "setting": "[13]", "result": "inhibit cell invasion"},
      {"measurement": "cKrox gene expression", "setting": "[14]", "result": "promoted cKrox gene expression"},
      {"measurement": "pIC50", "setting": "[15]", "result": 7.50},
      {"measurement": "expression of the H19 gene", "setting": "[16]; 5376 bladder carcinoma cell line", "result": "substantial reduction"},
      {"measurement": "expression of the H19 gene", "setting": "[16]; RT112 bladder carcinoma cell line", "result": "substantial reduction"}
    ]}
  ]
}
